According to article PMC10675528 (Pharmaceutics, 2023):
Read-outs that look alike come from different tables or passages of the source.

Experiments:
[1] = Incubation in the cecal contents of rats (conversion to RLZ); assay type: in vitro ADME, rat; conditions: for conversion to RLZ in cecal contents (in words): 1 mM, 10% cecal contents, anaerobic
Description: (§1) Male Sprague-Dawley rats (250–260 g) were euthanized using CO2 gas, collecting the intestinal tract contents separately from the small intestine and cecum. The cecal contents were collected in an atmospheric bag (AtmosBag, Sigma, St. Louis, MO, USA) filled with N2 gas. The contents were suspended in pH 6.8 isotonic phosphate buffer (20%, w/v). To 5 mL of the cecal and small intestinal suspensions, each solution (5 mL) of RAS, SAR, and SGR (2.0 mM) dissolved of pH 6.8 isotonic phosphate buffer was added, and then incubated at 37 °C. Incubation with the cecal contents was conducted in the bag filled with N2 gas. A 0.5 mL portion of the mixtures was transferred to a microtube, followed by centrifugation at 10,000× g at 4 °C for 10 min. Supernatants (0.3 mL) were subjected to extraction with EA (0.3 mL) and subsequent centrifugation at 10,000× g at 4 °C for 7 min. The organic layer (0.2 mL) transferred to a new microtube was evaporated, followed by the addition of mobile phase A (0.2 mL).

[2] = Distribution coefficient (log D6.8), 1-octanol/pH 6.8 isotonic phosphate buffer; assay type: physicochemical; conditions: 1-octanol/isotonic phosphate buffer (pH 6.8)
Description: To measure distribution coefficients of test compounds in 1-octanol/pH 6.8 isotonic phosphate buffer system, 1-octanol and pH 6.8 isotonic phosphate buffer was pre-saturated with each other. […] Distribution of test compounds in the organic phase/aqueous phase was determined by quantifying the concentration of each test compound in the organic or aqueous phase using a UV-Vis spectrophotometer (Shimadzu, Tokyo, Japan) at 263 nm. The following equation was employed to calculate the distribution coefficients (log D6.8). In the equation, CO is the initial concentration of a compound in the 1-octanol phase or aqueous phase; Cw is the equilibrium concentration of a compound in the aqueous phase; and COc is the equilibrium concentration of a compound in 1-octanol: log D6.8=log(COc/CW)=log(COc/(CO−COc]

[3] = Incubation in the small intestinal contents of rats; assay type: in vitro ADME; conditions: rat small intestinal contents; for release of RLZ in the small intestinal contents: Supplementary Figure S2; for change in concentration in small intestinal contents: 12 h
Description: as §1

GSK3β = experiment: p-GS level in the inflamed distal colon (Western blot); assay type: in vivo, Sprague-Dawley rats; conditions: oral once daily for 6 days
Description: (§2) Experimental colitis was induced in rats as previously described. […] The rats in each group were treated orally once daily, and the medication began three days after the induction of inflammation, and continued for six days. Twenty-four hours after the last medication, the anticolitic effects of drugs were evaluated assessing macroscopic and microscopic indices. Colonic-damage scores (CDS) were assigned using the modified scoring system shown in Supplementary Table S1. Colonic damage was scored using 4 independent observers blinded to the treatment conditions. Myeloperoxidase (MPO) activity was determined in the inflamed distal colon (4 cm) as previously described.
To prepare samples for Western blot analysis, tissue (distal colon) samples (0.2 g) were minced and homogenized in 2.0 mL of pre-chilled radioimmunoprecipitation assay (RIPA) buffer, which was agitated on ice for 0.5 h, and then centrifuged at 10,000× g at 4 °C for 10 min. The centrifuged lysates were subjected to protein quantification using the bicinchoninic acid reagent (Thermo Fisher Scientific, Waltham, MA, USA). […] The Western blot images were quantified using Image Lab software (version 5.2 build 14; Bio-Rad, Hercules, CA, USA). The mean of the quantified values was presented with the Western blot images in the figures (n = 3 for cell experiments, n = 5 for animal experiments).

[4] = cited from earlier work
DNBS-induced rat colitis = experiment: DNBS-induced rat colitis, anticolitic effects; assay type: in vivo, Sprague-Dawley rats
Description: as §2
To prepare samples for Western blot analysis, tissue (distal colon) samples (0.2 g) were minced and homogenized in 2.0 mL of pre-chilled radioimmunoprecipitation assay (RIPA) buffer, which was agitated on ice for 0.5 h, and then centrifuged at 10,000× g at 4 °C for 10 min. The centrifuged lysates were subjected to protein quantification using the bicinchoninic acid reagent (Thermo Fisher Scientific, Waltham, MA, USA). SDS-PAGE on a 7.5 or 10% gel was used for Western blot analysis of tissue lysates. To detect glycogen synthase (GS), phosphorylated GS (p-GS), cyclooxygenase (COX)-2, and inducible nitric oxide synthase (iNOS), anti-GS (Santa Cruz Biotechnology, Dallas, TX, USA), anti-p-GS (Cell Signaling Technology, Danvers, MA, USA), anti-COX-2 (sc-365374, Santa Cruz Biotechnology), and anti-iNOS (NOS-2) antibody (sc-7271, Santa Cruz Biotechnology) were used. SuperSignal chemiluminescence substrate (Thermo Fisher Scientific, Waltham, MA, USA) was used to visualize bands. α-Tubulin (Santa Cruz Biotechnology) was used as a loading control. The Western blot images were quantified using Image Lab software (version 5.2 build 14; Bio-Rad, Hercules, CA, USA). The mean of the quantified values was presented with the Western blot images in the figures (n = 3 for cell experiments, n = 5 for animal experiments).
ELISA kits were used to determine the level of CINC-3 and IL-10 in the inflamed distal colon as described previously. The ELISA was performed according to the manufacturer’s instructions.

[5] = 1-octanol/pH 6.8 buffer; cited from earlier work
[6] = RLZ concentration in blood (plasma) after oral administration; assay type: in vivo, Sprague-Dawley rats
Description: (§3) The plasma (0.25 mL) was extracted with EA (0.7 mL), and the organic layer (0.5 mL) was evaporated and dissolved in mobile phase A or B (0.1 mL). After filtration through a membrane filter (0.45 μm), the filtrate (20 μL) was injected to HPLC. To determine the concentrations of SAR and RAS in the blood, MeOH (0.9 mL) was added to the plasma (0.1 mL) and centrifuged at 10,000× g at 4 °C for 10 min. After filtration of the supernatants through a membrane filter (0.45 μm), the filtrate (20 μL) was injected to HPLC.

[7] = Concentration of the conjugates in the blood after oral administration; assay type: in vivo, Sprague-Dawley rats; conditions: equimolar dose, 4, 8, 12 h, Supplementary Figure S4
Description: as §3, with “Male Sprague-Dawley rats fasted for 24 h except for water. […] At 4, 8, and 12 h after the oral treatment, the plasma (0.3 mL) was obtained from the blood samples (collected via cardiac puncture) centrifuged at 10,000× g at 4 °C for 10 min. The” for “The”

Caco-2 cell monolayer = experiment: Cell permeability assay using Caco-2 monolayers; assay type: in vitro ADME; conditions: 500 µM apical, up to 24 h, compared with RAS
Description: Caco-2 cells (4 × 10^5 per insert) were seeded in Transwell 6-well inserts with a pore size of 0.4 μm (SPL Inc., Houston, TX, USA). DMEM containing 1% penicillin/streptomycin was added to the basolateral (3.0 mL) and apical (insert) compartments (2.0 mL). The cells were grown until the cell monolayer’s transepithelial electrical resistance value (EMD Millipore, Billerica, MA, USA) reached 2000 Ω.cm^2. […] At appropriate time intervals, the drug concentration in the basolateral compartment was determined using HPLC.

[8] = Chemical stability in pH 1.2 and pH 6.8 buffers; assay type: physicochemical; conditions: 0.1 mM, 12 h
Description: To test the chemical stabilities of SAR and SGR, the two compounds (0.1 mM) were incubated for 12 h in pH 1.2 HCl-NaCl buffer and pH 6.8 isotonic phosphate buffer, and change in the drug concentrations was monitored using HPLC analysis.

[9] = oral once daily for 6 days, ELISA
[10] = SAR L and H doses, dose-dependent, Western blot

| melting point | logD at 12 h [2] | release of RLZ in the small intestinal contents [3] | conjugate (prodrug) in the blood [7] | change in concentration in small intestinal contents [3] | change in concentration in buffer solutions [8] | Structure (SMILES) | conversion to RLZ in cecal contents (in words) [1] | level of p-GS in the inflamed colon (GSK3β) | level of IL-10 in the inflamed colon (DNBS-induced rat colitis; [9]) | also measured |
| --- | --- | --- | --- | --- | --- | --- | --- | --- | --- | --- |
| – | 1 | released a substantial amount of RLZ | – | – | – | N[C@@H](CCC(=O)O)C(=O)Nc1nc2ccc(OC(F)(F)F)cc2s1 [GR, N-(L-glutam-1-yl)riluzole] | – | – | – | – |
| 202 °C (dec.) | -2.1 | – | not detectable | No significant change | No significant change | O=C(O)CCC(=O)N[C@@H](CC(=O)O)C(=O)Nc1nc2ccc(OC(F)(F)F)cc2s1 [SAR, (N-succinyl-L-aspart-1-yl)riluzole] | readily converted to RLZ in a time-dependent manner | substantially diminished | further augmented | AR detected during incubation of SAR with the cecal contents ([1]; cecal contents): no AR was detected; permeation through Caco-2 cell monolayer (Caco-2 cell monolayer): less efficient than RAS; MPO activity in the inflamed distal colon (DNBS-induced rat colitis; SAR L and H doses, dose-dependent): lowered; CINC-3 level in the inflamed distal colon (DNBS-induced rat colitis; SAR L and H doses, dose-dependent, ELISA): lowered; COX-2 level in the inflamed distal colon (DNBS-induced rat colitis; [10]): lowered; iNOS level in the inflamed distal colon (DNBS-induced rat colitis; [10]): lowered; colonic damage and inflammation compared with SSZ (DNBS-induced rat colitis; SAR even at lower dose vs SSZ 30 mg/kg): more effective than SSZ; all anticolitic indices compared with RAS (DNBS-induced rat colitis; equimolar dose (equivalent to 10 mg/kg RLZ)): significantly superior to RAS; colonic damage (CDS, H&E staining) (DNBS-induced rat colitis; oral once daily for 6 days, SAR equivalent to 5 (L) and 10 (H) mg/kg RLZ): mitigated the pathological state of the inflamed colon at both doses; systemic absorption of RLZ (RLZ in blood, in words) ([6]; oral SAR 19.2 mg/kg): barely detectable; maximal plasma concentration of RLZ relative to oral RAS ([6]; oral, equimolar dose): approximately one-seventh |

Continued, compound first:

| Structure (SMILES) | melting point | logD at 12 h [2] | release of RLZ in the small intestinal contents [3] | conjugate (prodrug) in the blood [7] | change in concentration in small intestinal contents [3] | change in concentration in buffer solutions [8] | conversion to RLZ in cecal contents (in words) [1] | level of p-GS in the inflamed colon (GSK3β) | level of IL-10 in the inflamed colon (DNBS-induced rat colitis; [9]) | also measured |
| --- | --- | --- | --- | --- | --- | --- | --- | --- | --- | --- |
| N[C@@H](CC(=O)O)C(=O)Nc1nc2ccc(OC(F)(F)F)cc2s1 [AR, N-(L-aspart-1-yl)riluzole] | 163 °C | 0.8 | released a substantial amount of RLZ | – | – | – | conversion percentage to RLZ was lower than that of SAR | – | – | – |
| O=C(O)c1cc(/N=N/c2nc3ccc(OC(F)(F)F)cc3s2)ccc1O [RAS, reference compound] | – | – | – | detected | – | – | – | substantially diminished | further augmented | peak blood concentration of RLZ relative to that after oral RLZ [4]: approximately one-fifth; distribution coefficient (log D6.8) [5]: 2.1; peak blood concentration of RLZ relative to that after oral RLZ ([6]; oral, equimolar doses (10 mg/kg RLZ)): approximately one-fifth |
| O=C(O)CCC(=O)N[C@@H](CCC(=O)O)C(=O)Nc1nc2ccc(OC(F)(F)F)cc2s1 [SGR, (N-succinyl-L-glutam-1-yl)riluzole] | – | -2 | – | – | No significant change | No significant change | resistant to cecal conversion of RLZ | – | – | – |
